Entries after “also recorded” stand apart in the source; their conditions may differ.
What was measured:
[1] = oral or intravenous route; cited from earlier work
[2] = Same clinical trial: insulin during meal tolerance test (MTT); type: in vivo, human
Description: Changes in area-under-the-curve (AUC) and 120-minute insulin and glucose levels during the mcal tolerance test (MTT).
(§1) This multicenter, double-blind, parallel-group, placebo-controlled, randomized, fixed-dose clinical study was designed to evaluate 1200 mg/day D-chiro-inositol versus placebo in 270 obese patients with type 2 diabetes mellitus who had been receiving sulfonylureas for at least 3 months without reaching their target or with suboptimal response.
(§2) The study involved 5 scheduled visits. The first visit was the screening visit, followed by a baseline visit up to 2 weeks later. Patients were randomized at the baseline visit, half to 1200 mg/day D-chiro-inositol and half to placebo, and subsequently began 13 weeks of treatment with blinded study medication. There were 3 visits for safety and efficacy assessments, at 4, 8, and 13 weeks after beginning treatment. The 13-week visit was the final visit. Patients arrived at the investigational site in a fasted state for all visits. Assessments were to be done at the same time of day at each visit by the same responsible personnel. Medication was taken once a day at the same time of morning, except on visit days, on which the dose was delayed until just after fasting blood samples had been collected.
(§3) Biomarkers: A meal tolerance test (MTT) was performed at baseline (Visit 2) and the final visit (Visit 5). In addition, blood was drawn at every visit for assessment of fasting glucose and insulin, HbA1c, C-peptide, fructosamine, FFA, triglycerides, total cholesterol, HDL, VLDL, LDL, and Apo-B levels.
(§4) Secondary Efficacy Variable (s) and Analyses. Since all secondary efficacy parameters were continuous, they were analyzed in the same manner as described above for the primary efficacy parameter, with treatment group and baseline values for the relevant parameter used as predictors. These secondary efficacy parameters included:
AUC (and 120-minute) insulin and glucose levels during the MTT;

[3] = Randomized placebo-controlled clinical trial of D-chiro-inositol with sulfonylureas: glycemic markers (HbA1c, fructosamine, fasting glucose); type: in vivo, human; settings: for Difference in HbA1c change between D-chiro-inositol and placebo: baseline to endpoint
Description: The objective of this study was to assess the efficacy and safety of D-chiro-inositol when administered as a single oral dose of 1200 mg/day compared to placebo, each in combination with sulfonylureas, for 3 months. Patients were required to have been on sulfonylureas for 3 months prior to study entry without reaching their target dose or with a suboptimal response.
as §1, §2
Patients receiving D-chiro-inositol received four 300 mg capsules once daily for a total daily dose of 1200 mg; placebo patients took 4 placebo capsules once daily. Doses were taken orally, generally in the mornings. Patients were instructed to take their dose in the morning at the same time each day, except on visit days. On visit days, dosing was to be done at the clinic. No instructions were given regarding when to take medication in relation to meals on non-visit days.
as §3
Primary Efficacy Variable(s) and Analyses. The primary analysis was based on the change from baseline to endpoint in HbA1c level using the modified ITT and evaluable study populations. The analysis was done using an analysis of covariance (ANCOVA) model with treatment group and the baseline HbA1c value as predictors.
Secondary Efficacy Variable (s) and Analyses. Since all secondary efficacy parameters were continuous, they were analyzed in the same manner as described above for the primary efficacy parameter, with treatment group and baseline values for the relevant parameter used as predictors.

[4] = Subgroup analysis of the clinical trial: lipid lowering drug / D-chiro-inositol effects on LDL cholesterol; type: in vivo, human; settings: type 2 diabetic patients on sulfonylurea, with or without lipid lowering medication
Description: Due to the observation of lipid lowering effects seen in the DCI group, the clinical trial described in EXAMPLE 1 was further analyzed for synergistic interactions between D-chiro-inositol and lipid lowering medications. Certain patients within the trial were treated according to standard of care with HMC-CoA inhibitors (LIPITOR®, LESCOL®, ZOCOR®, MEVACOR®, PRAVACHOL®), gemfibrozil, or a combination of HMC-CoA and gemfibrozil. No inclusion or exclusion criteria were established for the efficacy of the lipid lowering drug efficacy in the patient population. As stated supra, these patients were being sub optimally treated with a sulfonylurea prior to beginning the clinical trial. The patients could not change their lipid lowering dose and/or regimen during the length of the study.

[5] = streptozotocin-treated rats, obese Zucker rats, or normal rats given a glucose load; cited from earlier work
[6] = Same clinical trial: fasting serum lipids (cholesterol, LDL, Apo-B, FFA); type: in vivo, human
Description: Changes in levels of triglycerides, total cholesterol, high-density lipoproteins (HDL), low-density lipoproteins (LDL), very-low-density lipoproteins (VLDL), apolipoprotein B (Apo-B), and free fatty acids (FFA).
as §1, §2, §3, §4
Total cholesterol, triglycerides, HDL, LDL, VLDL, Apo-B, and FFA levels;

[7] = MTT, evaluable patients with FPG ≦ 180 mg/dL
[8] = MTT, evaluable patients, 1200 mg/day plus sulfonylurea
[9] = evaluable patients with FPG ≦ 180 mg/dL
[10] = patients with FPG ≦ 180 mg/dL, 1200 mg/day oral plus sulfonylurea
[11] = evaluable patients, 1200 mg/day plus sulfonylurea

In the case of OC1C(O)C(O)C(O)C(O)C1O [D-chiro-inositol], the “Disappearance rate of plasma glucose and insulin” value [1] is listed as “significantly increased the disappearance rate of both plasma glucose and insulin”, the “Change in insulin AUC from baseline to endpoint, median of individual subjects (FIG. 2)” value ([2]; DCI+SU group) is listed as “slightly increased the insulin AUC” and the “120-min. insulin, mean change” value [2, 7] is listed as 5.09 μU/mL. For the same compound, the “AUC insulin, mean change” value [2, 7] was 1070.8 μU/mL·hr, the “120-min. insulin, mean change at endpoint” value [2, 8] was 3.50 μU/mL and the “AUC insulin, mean change at endpoint” value [2, 8] was 484.4 μU/mL·hr. The “Insulin response to meal tolerance test over the treatment period (FIGS. 1A, 1B)” value ([2]; subjects with fasting blood glucose ≦180 mg/dl, DCI+SU, 13 weeks, listed as DCI) was “maintained this response after the 13 week course of treatment; also recorded: maintains a constant insulin response over the testing period”, the “Fasting glucose, mean change” value [3, 9] was 12.67 mg/dL and the “Fructosamine, mean change” value [3, 9] was -15.22 µmol/L. The “Decrease in mean HbA1c level from baseline to endpoint” value ([3]; evaluable patients with FPG≦180 mg/dL, stated as a decrease) was 0.53%, the “Mean change in HbA1c from baseline to endpoint, mean (SD)” value ([3]; evaluable patients, LOCF at endpoint (13 weeks), 1200 mg/day oral plus sulfonylurea) was −0.16 (1.03) % and the “Difference in HbA1c change between D-chiro-inositol and placebo” value ([3]; evaluable population) was 0.36%. The “Decrease in mean fructosamine levels” value ([3]; evaluable population, p=0.159 vs placebo) was 5.32 µmol/L, the “Decrease in mean HbA1c levels from baseline to endpoint” value ([3]; evaluable population, stated as a decrease) was 0.16% and the “Mean change in HbA1c from baseline to endpoint, mean (SD)” value ([3]; patients with FPG ≦ 180 mg/dL, LOCF at endpoint, 1200 mg/day oral plus sulfonylurea) was −0.53 (1.03) %. The “Mean change in HbA1c from baseline to Week 4, mean (SD)” value [3, 10] was −0.47 (0.68) %, the “Mean change in HbA1c from baseline to Week 8, mean (SD)” value [3, 10] was −0.57 (0.82) % and the “Difference in HbA1c change between D-chiro-inositol and placebo” value ([3]; patients with FPG≦180 mg/dL) was 0.80%. The “Effect on LDL cholesterol (FIG. 3)” value [4] was “significantly reduced the increase of LDL cholesterol”, the Glycemic control [5] was “significantly improved glyceimic control” and the “Apo-B, mean change” value [6, 9] was -4.00 mg/dL. For the same compound, the “Cholesterol, mean change” value [6, 9] was -5.31 mg/dL, the “LDL, mean change” value [6, 9] was -4.14 mg/dL and the “Decrease in LDL” value ([6]; evaluable patients with FPG>180 mg/dL, p=0.036 vs placebo) was 2.02 mg/dL. The “Apo-B, mean change at endpoint” value [6, 11] was -1.26 mg/dL, the “Cholesterol, mean change at endpoint” value [6, 11] was -2.74 mg/dL and the “FFA, mean change at endpoint” value [6, 11] was −0.07 mEq/L. For the same compound, the “LDL, mean change at endpoint” value [6, 11] was -2.95 mg/dL.
